In the supplement of paper PMC10307832:

Tests used:
Experiment in all cases: relative viability (nuclei count vs DMSO), 5 days (fraction); higher = more cells survive
[1] = compound: C1COCCN1C2=NC(=NC3=C2OC4=C3C=CC=N4)C5=CC(=CC=C5)NC(=O)C6=CN=C(C=C6)N + N=C(N)NC(=N)NCCc1ccccc1 [Phenformin] (partner 250 µM)
Method in brief: (§1)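 Cells from lung cancer lines were seeded into 1536-well plates and, one day later, dosed by pin tool. Treatments were either a single drug or a fixed dose of an anchor drug with five library-drug doses (not always all listed) in √10 steps. After 5 days, nuclei were stained in a one-step fixation (final 0.05% Triton X-100, 1% formaldehyde, 1 ug/ml Hoechst) and counted on 4× images, and relative viability is the treated-to-vehicle nuclei ratio, as the median of duplicate plates.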

SGI-1776 + Trametinib = compound: CN1CCC(CNc2ccc3ncc(-c4cccc(OC(F)(F)F)c4)n3n2)CC1 [SGI-1776] + CC(=O)Nc1cccc(-n2c(=O)n(C3CC3)c(=O)c3c(Nc4ccc(I)cc4F)n(C)c(=O)c(C)c32)c1 [Trametinib] (partner 0.02 µM)
Method in brief: as §1

[2] = compound: C1COCCN1C2=NC(=NC3=C2OC4=C3C=CC=N4)C5=CC(=CC=C5)NC(=O)C6=CN=C(C=C6)N + CC1(C)CCC(c2ccc(Cl)cc2)=C(CN2CCN(c3ccc(C(=O)NS(=O)(=O)c4ccc(N[C@H](CCN5CCOCC5)CSc5ccccc5)c(S(=O)(=O)C(F)(F)F)c4)cc3)CC2)C1 [Navitoclax] (partner 0.5 µM)
Method in brief: as §1

SGI-1776 + Luminespib = compound: CN1CCC(CNc2ccc3ncc(-c4cccc(OC(F)(F)F)c4)n3n2)CC1 [SGI-1776] + CCNC(=O)c1noc(-c2cc(C(C)C)c(O)cc2O)c1-c1ccc(CN2CCOCC2)cc1 [Luminespib] (partner 0.01 µM)
Method in brief: as §1

## LCLC-97TM1
[1]; first compound 0.02 µM
  relative viability: 0.446
[1]; first compound 0.06325 µM
  relative viability: 0.475
[1]; first compound 0.2 µM
  relative viability: 0.409
[1]; first compound 0.6325 µM
  relative viability: 0.452
[1]; first compound 2 µM
  relative viability: 0.419
SGI-1776 + Trametinib; first compound 0.08 µM
  relative viability: 0.216
SGI-1776 + Trametinib; first compound 0.8 µM
  relative viability: 0.205
SGI-1776 + Trametinib; first compound 2.53 µM
  relative viability: 0.195
SGI-1776 + Trametinib; first compound 8 µM
  relative viability: 0.199
[2]; first compound 0.06325 µM
  relative viability: 0.532
[2]; first compound 0.2 µM
  relative viability: 0.673
[2]; first compound 0.6325 µM
  relative viability: 0.546
[2]; first compound 2 µM
  relative viability: 0.43
SGI-1776 + Luminespib; first compound 0.08 µM
  relative viability: 0.947
SGI-1776 + Luminespib; first compound 0.8 µM
  relative viability: 0.847
SGI-1776 + Luminespib; first compound 2.53 µM
  relative viability: 0.746
SGI-1776 + Luminespib; first compound 8 µM
  relative viability: 0.742

## NCI-H1975
[1]; first compound 0.02 µM
  relative viability: 0.394
[1]; first compound 0.06325 µM
  relative viability: 0.416
[1]; first compound 0.2 µM
  relative viability: 0.388
[1]; first compound 0.6325 µM
  relative viability: 0.37
[1]; first compound 2 µM
  relative viability: 0.243
SGI-1776 + Trametinib; first compound 0.08 µM
  relative viability: 0.389
SGI-1776 + Trametinib; first compound 0.8 µM
  relative viability: 0.33
SGI-1776 + Trametinib; first compound 2.53 µM
  relative viability: 0.325
SGI-1776 + Trametinib; first compound 8 µM
  relative viability: 0.313
[2]; first compound 0.02 µM
  relative viability: 1.31
[2]; first compound 0.06325 µM
  relative viability: 1.17
[2]; first compound 0.2 µM
  relative viability: 1.05
[2]; first compound 0.6325 µM
  relative viability: 1.13
[2]; first compound 2 µM
  relative viability: 0.422
SGI-1776 + Luminespib; first compound 0.08 µM
  relative viability: 0.302
SGI-1776 + Luminespib; first compound 0.8 µM
  relative viability: 0.137
SGI-1776 + Luminespib; first compound 2.53 µM
  relative viability: 0.208
SGI-1776 + Luminespib; first compound 8 µM
  relative viability: 0.106
